Reference: publication PMC7774954, “Interactomic affinity profiling by holdup assay: Acetylation and distal residues impact the PDZome-binding specificity of PTEN phosphatase” (PLoS ONE, 2020)

Tested on: 266 human PDZ domains (PDZome)
Test: Holdup assay (chromatographic retention, PDZome-binding profile, BI)
Parameters: key to maximal BI / Max BI / BI: binding intensity: 0.00 = no binding, 1.00 = maximal binding; Log(Kd): unit not given here
Procedure: The holdup method is a chromatographic approach in solution developed in our group that allows to measure the binding strength of a peptide, attached to a resin, against a library of domains of a same family. We initially proposed this method to explore the interaction between PBM peptides and the human PDZ domains. Briefly, a soluble cell lysate containing individually overexpressed PDZ domain is incubated until equilibrium with a calibrated amount of streptavidin-resin saturated either with the target biotinylated PBM peptide or with biotin as a reference. The flow-throughs containing the unbound protein fraction are recovered by filtration and loaded on a capillary electrophoresis instrument to quantify the amount of remaining free PDZ. The stronger the steady-state depletion of the PDZ domain in the flow-through as compared to the reference, the stronger the PDZ/PBM binding interaction. The assay is particularly suited to quantitatively evaluate and compare large numbers of interactions. This method delivers, for each PBM/PDZ pair, a "binding intensity" (BI), whose value can in principle range from 0.00 (no binding event detected) to 1.00 (maximal binding event). The approach has been automated and the human PDZ library was recently extended to the complete 266 PDZ domains known in human proteome. […] The high accuracy and efficiency of the holdup assay have been validated previously. Very recently, a manual version of the holdup assay with purified samples and using widespread benchtop equipment has been implemented and has proven to be reliable.
The 266 PDZ domains that constitute the PDZ library (“PDZome V.2”) used in the present work were produced using constructs with optimized boundaries as described previously. All the genes were fused to Maltose-Binding Protein (MBP) or Thioredoxin (THR) tag often used to facilitate the solubilisation of the over-expressed protein, by cloning them into the pETG41A or pETG20A plasmid, respectively. […] The expressed tag-PDZ concentrations were quantified using capillary gel electrophoresis and cell lysates were diluted to reach approximately 5 μM tag-PDZ before freezing in 96-well plates. A detailed protocol of the PDZ library production, expression and benchmarking can be found in [32]. PDZ domains are named according to their originating protein name followed by the PDZ number (e.g. NHERF1-1 as the first PDZ domain of the NHERF1 protein).
The holdup assay was performed on a Tecan freedom Evo200 robot with 384-well plates in singlicate for the three 11-mer PTEN variants and the 13-mer PTEN peptide as described in [31, 32]. Briefly, prior to interaction assay, 2.5 μL of streptavidin resin was saturated in each well with 20 μL of biotinylated PBM peptides (42 μM) and then washed twice with an excess of free biotin, while the reference resin was incubated only with biotin. Right before the holdup experiment, the PDZ library was spiked with an internal standard of lysozyme. Then, the biotin- or PBM-saturated resin was incubated, each in a distinct well of a 384-well plate, with complete cell lysates diluted so that the concentration of the tag-PDZ present in the crude extract is adjusted at 4 μM. After a sufficient time to reach complex equilibrium (15 min.), a fast and mild filtration step is performed and the tag-PDZ concentrations were measured by capillary electrophoresis instrument (LabChip GXII, PerkinElmer, Massachusets, USA). Standard markers were used to convert migration time into molecular weight on the LabChip software and inappropriate molecular weight markers were corrected or excluded.
Holdup data quality check and processing […]

[1] = PDZ domain PARD3-1, first of two lines so named (r186)

## CC[C@H](C)[C@H](NC(=O)[C@H](CCC(N)=O)NC(=O)[C@@H](NC(=O)[C@H](Cc1c[nH]cn1)NC(=O)[C@H](CCC(N)=O)NC(=O)[C@H](CC(=O)O)NC(=O)[C@H](CCC(=O)O)NC(=O)[C@H](CC(=O)O)NC(=O)CCC(=O)NCCCOCCOCCOCCCNC(=O)CCCC[C@@H]1SC[C@@H]2NC(=O)N[C@@H]21)[C@@H](C)O)C(=O)N[C@H](C(=O)N[C@@H](CCCCN)C(=O)N[C@H](C(=O)O)C(C)C)[C@@H](C)O [PTEN_11]
PDZ domain MPDZ-2
  BI: -0.043
PDZ domain MPDZ-3
  BI: 0.079
PDZ domain MPDZ-4
  BI: -0.037
PDZ domain MPDZ-5
  BI: 0.085
PDZ domain MPDZ-6
  BI: -0.029
PDZ domain MPDZ-7
  BI: 0.154
PDZ domain MPDZ-8
  BI: 0.119
PDZ domain MPDZ-9 (gene NHERF2, 2)
  BI: -0.075
PDZ domain MPP1-1
  BI: -0.033
PDZ domain MPP2-1
  BI: -0.076
PDZ domain MPP3-1
  BI: 0.035
PDZ domain MPP4-1
  BI: 0.041
PDZ domain MPP5-1
  BI: -0.091
PDZ domain MPP6-1
  BI: -0.062
PDZ domain MPP7-1
  BI: 0.034
PDZ domain NHERF1-2
  BI: 0.094
PDZ domain NHERF3-1
  BI: 0.153
PDZ domain NHERF3-2
  BI: 0.063
PDZ domain NHERF3-3
  BI: 0.131
PDZ domain NHERF3-4
  BI: -0.013
PDZ domain NHERF4-1
  BI: -0.04
PDZ domain NHERF4-2
  BI: -0.071
PDZ domain NHERF4-3
  BI: 0.06
PDZ domain NHERF4-4
  BI: -0.01
PDZ domain NOS1-1
  BI: 0.016
[1]
  BI: 0.172
  Log(Kd): 3.7949
PDZ domain PARD3-1, second of two lines so named (r187)
  BI: 0.048
PDZ domain PARD3B-1
  BI: -0.032
PDZ domain PARD3B-2
  BI: 0.045
PDZ domain PARD3B-3
  BI: -0.026
PDZ domain PARD6G-1
  BI: -0.088
PDZ domain PDLIM2-1
  BI: -0.001
PDZ domain PDLIM3-1
  BI: -0.059
PDZ domain PDLIM4-1
  BI: -0.02
PDZ domain PDLIM5-1
  BI: 0.07
PDZ domain PDLIM7-1
  BI: 0.032
PDZ domain PDZD2-1
  BI: -0.006
PDZ domain PDZD2-3
  BI: -0.072
PDZ domain PDZD2-4
  BI: -0.02
PDZ domain PDZD2-5
  BI: 0.028
PDZ domain PDZD2-6
  BI: 0.115
PDZ domain PDZD4-1
  BI: 0.019
PDZ domain PDZD7-1
  BI: -0.032
PDZ domain PDZD7-2
  BI: 0.087
PDZ domain PDZD7-3
  BI: 0.658
PDZ domain PDZD8-1
  BI: -0.04
PDZ domain PDZD11-1
  BI: -0.013
PDZ domain PDZRN4-1
  BI: 0
PDZ domain PDZRN4-2
  BI: 0.005
PDZ domain PREX1-1
  BI: 0.099
PDZ domain PREX2-2
  BI: -0.021
PDZ domain PRX-1
  BI: -0.1
PDZ domain PSCDBP-1
  BI: -0.154
PDZ domain PSMD9-1
  BI: -0.01
PDZ domain PTPN3-1
  BI: 0.075
PDZ domain PTPN4-1
  BI: 0.017
PDZ domain PTPN13-1
  BI: 0.143
PDZ domain PTPN13-5
  BI: -0.041
PDZ domain RAPGEF2-1
  BI: -0.045
PDZ domain RHPN2-1
  BI: -0.079
PDZ domain SCRIB-1
  BI: 0.062
PDZ domain SCRIB-2
  BI: -0.183
PDZ domain SCRIB-4
  BI: 0.061
PDZ domain SHANK1-1
  BI: 0.251
PDZ domain SHANK2-1
  BI: 0.071
PDZ domain SHANK3-1
  BI: 0.106
PDZ domain SHROOM2-1
  BI: 0.022
PDZ domain SHROOM4-1
  BI: -0.001
PDZ domain SIPA1L2-1
  BI: 0.019
PDZ domain SNTA1-1
  BI: 0.18
PDZ domain SNTB1-1
  BI: 0.156
PDZ domain SNTG1-1
  BI: 0.078
PDZ domain SNTG2-1
  BI: 0.056
PDZ domain STXB4-1
  BI: -0.026
PDZ domain SYNJ2BP-1
  BI: 0.089
PDZ domain SYNP2-1
  BI: -0.045
PDZ domain SYNPO2L-1
  BI: -0.053
PDZ domain TIAM1-1
  BI: 0.032
PDZ domain TIAM2-1
  BI: 0.033
PDZ domain TJP1-1
  BI: 0.119
PDZ domain TJP1-2
  BI: -0.039
PDZ domain TJP2-3
  BI: 0.064
PDZ domain TJP3-1
  BI: 0.015
PDZ domain TJP3-2
  BI: 0.017
PDZ domain TX1B3-1
  BI: -0.022
PDZ domain USH1C-1
  BI: -0.104
holdup, singlicate, threshold BI>0.20
  number of PDZ domains identified as potential binders (BI>0.20): 19 PDZ domains
holdup, singlicate, highest BI in the PDZome profile, BI standard error ~0.07
  maximal BI: 0.71
Including several ones from MAGI and NHERF
  binding of several PDZ domains (in words): detectably bound
Maximum over PDZome
  Max BI: 0.71
